The values that follow come from patent US9249102B2 (priority 2012, dated 2016).

Where two headings read alike, the source gives them in different places.

In data set [1] the test system is Haemonchus contortus. Put plainly: Method A: Haemonchus contortus L1 larvae, microtitre plate screen. The following applies: 96 h, read-out: motility inhibition.
Data set [2] is described as follows: Method G: permeability in the Caco-2/TC7 in vitro model. The following applies: human, Caco-2, pH 6.5.
Data set [3] concerns microfilaria of Dirofilaria immitis. Description: Method F: microfilaria of Dirofilaria immitis, survival at 24 hours.
Another data set has as its system Cooperia oncophora. Put plainly: Method C: Cooperia oncophora L1 larvae in vitro. The following applies: 96 h, read-out: inhibition of motility.
In data set [4] the test system is Haemonchus contortus. Put plainly: Method D: Haemonchus contortus in vivo in Mongolian jirds. The following applies: po, 72 h, read-out: reduction in nematode infestation. More on the design: species or system Mongolian jirds (Meriones unguiculatus).
Data set [5] concerns anthelmintic-resistant isolate of Haemonchus contortus. Put plainly: Method B: anthelmintic-resistant (benzimidazole-resistant) isolate of Haemonchus contortus, conditions of method A. The following applies: H. contortus isolate functionally resistant against benzimidazoles.
The mark [6] stands for this setting: survival of microfilaria at 24 hours.

On to `O=C(CO[C@H]1CC[C@H](Nc2ccc([N+](=O)[O-])c(C(F)(F)F)c2)CC1)N1CCN(Cc2nc3cc(F)ccc3s2)CC1` [Compound 235, 1-(4-((5-fluorobenzo[d]thiazol-2-yl)methyl)piperazin-1-yl)-2-(-4-(4-nitro-3-(trifluoromethyl)phenylamino)cyclohexyloxy)ethanone], for which the inhibition at 5 µg/mL with Haemonchus contortus [1] and with Cooperia oncophora was not below 90% in each case. The Papp A→B (in general, the apparent permeability from the apical to the basolateral side of a cell layer) at 20 μM in data set [2] is 13.8 ×10⁻⁶ cm/s. The EC50 – broadly, the midpoint of the concentration-response curve – in data set [3] (setting [6]) was less than 1 µg/mL. The inhibition in vivo at 30 mg/kg in the data set with Haemonchus contortus [4] lay in the range of 70 to 90%.

Regarding `CN(c1ccc([N+](=O)[O-])c(C(F)(F)F)c1)[C@H]1CC[C@H](OCC(=O)N2CCN(c3ccc4cc(C(F)(F)F)ccc4n3)CC2)CC1` [Compound 245, 2-[[(1r,4r)-4-[methyl[4-nitro-3-(trifluoromethyl)phenyl]amino]cyclohexyl]oxy]-1-[4-[6-(trifluoromethyl)quinolin-2-yl]piperazin-1-yl]ethan-1-one], the inhibition at 5 µg/mL in the data set on Haemonchus contortus [1] and in the data set on Cooperia oncophora was not below 90% each time. The same molecule yielded an EC50 in data set [3] of less than 1 µg/mL. In the data set on Haemonchus contortus [4], the inhibition in vivo at 30 mg/kg was more than 90%.

Turning to `CN(c1ccc([N+](=O)[O-])c(C(F)(F)F)c1)[C@H]1CC[C@H](OCC(=O)N2CCN(CC3Cc4cc(F)ccc4O3)CC2)CC1` (some centres unmarked) [Compound 261, 1-[4-(5-fluoro-2,3-dihydro-benzofuran-2-ylmethyl)-piperazin-1-yl]-2-{4-[methyl-(4-nitro-3-trifluoromethyl-phenyl)-amino]-cyclohexyloxy}-ethanone], the inhibition at 5 µg/mL with Haemonchus contortus [1] and in the data set on Cooperia oncophora was not below 90% each time. The molecule also had a Papp A→B at 20 μM in data set [2] of 8.2 ×10⁻⁶ cm/s. Further, in data set [3] (setting [6]), the EC50 was less than 0.1 µg/mL. The inhibition in vivo at 30 mg/kg in the data set with Haemonchus contortus [4] was more than 90%.

For the molecule `N#Cc1ccc(N[C@H]2CC[C@H](OCC(=O)N3CCN(c4ccc5cc(Cl)ccc5n4)CC3)CC2)cc1C(F)(F)F` [Compound 272, 2-[(4-[[4-cyano-3-(trifluoromethyl)phenyl]amino]cyclohexyl)oxy]-1-[4-(6-chloroquinolin-2-yl)piperazin-1-yl]ethan-1-one], the inhibition at 5 µg/mL with Haemonchus contortus [1] and in the data set with Cooperia oncophora was not below 90% in each case. In data set [3] (setting [6]), this molecule came in with an EC50 of less than 1 µg/mL. In addition, the inhibition in vivo at 30 mg/kg in the data set with Haemonchus contortus [4] lay in the range of 70 to 90%.

For `N#Cc1ccc(N[C@H]2CC[C@H](OCC(=O)N3CCN(c4ccc5cc(C(F)(F)F)ccc5n4)CC3)CC2)cc1C(F)(F)F` [Compound 273, 2-[(4-[[4-cyano-3-(trifluoromethyl)phenyl]amino]cyclohexyl)oxy]-1-[4-[6-(trifluoromethyl)quinolin-2-yl]piperazin-1-yl]ethan-1-one], the inhibition at 5 µg/mL in the data set with Haemonchus contortus [1] and with Cooperia oncophora was not below 90% throughout. Further, the EC50 in data set [3] (setting [6]) is less than 1 µg/mL. Besides, the inhibition in vivo at 30 mg/kg with Haemonchus contortus [4] was more than 90%.

As for `N#Cc1ccc(N[C@H]2CC[C@H](OCC(=O)N3CCN(c4ccc5cc(Cl)ccc5c4)CC3)CC2)cc1C(F)(F)F` [Compound 278], the inhibition at 5 µg/mL with Haemonchus contortus [1] and in the data set on Cooperia oncophora was not below 90% each time. Besides, the EC50 in data set [3] (setting [6]) is less than 1 µg/mL. The inhibition in vivo at 30 mg/kg in the data set with Haemonchus contortus [4] (in Meriones unguiculatus) fell in the range of 70 to 90%.

For the molecule `O=C(CO[C@H]1CC[C@H](Nc2ccc([N+](=O)[O-])c(C(F)(F)F)c2)CC1)N1CCN(Cc2nc3cc(C(F)(F)F)ccc3s2)CC1` [Compound 302, 2-[4-[4-nitro-3-(trifluoromethyl)anilino]cyclohexoxy]-1-[4-[[5-(trifluoromethyl)-1,3-benzothiazol-2-yl]methyl]piperazin-1-yl]ethanone], the inhibition at 5 µg/mL in the data set on Haemonchus contortus [1] and in the data set with Cooperia oncophora was not below 90% in each case. The molecule also returned an EC50 in data set [3] (setting [6]) of less than 0.1 µg/mL. Besides, the inhibition in vivo at 30 mg/kg with Haemonchus contortus [4] is more than 90%.

In the case of `O=C(CO[C@H]1CC[C@H](Nc2ccc([N+](=O)[O-])c(C(F)(F)F)c2)CC1)N1CCN(Cc2cc3cc(F)c(F)cc3o2)CC1` [Compound 325, 2-[(4-[[4-nitro-3-(trifluoromethyl)phenyl]amino]cyclohexyl)-oxy]1-[4-(5,6-difluorobenzofuran-2-ylmethyl)piperazin-1-yl]ethan-1-one], the inhibition at 5 µg/mL in the data set on Haemonchus contortus [1] and in the data set on Cooperia oncophora was not below 90% throughout. For the same molecule, the Papp A→B at 20 μM in data set [2] worked out at 9 ×10⁻⁶ cm/s. The inhibition in vivo at 30 mg/kg with Haemonchus contortus [4] fell in the range of 70 to 90%.

Take `O=C(CO[C@H]1CC[C@H](Nc2ccc([N+](=O)[O-])c(C(F)(F)F)c2)CC1)N1CCN(Cc2cnc3cc(C(F)(F)F)ccc3c2)CC1` [Compound 327, 2-[4-(4-nitro-3-trifluoromethyl-phenylamino)-cyclohexyloxy]-1-[4-(7-trifluoromethyl-quinolin-3-ylmethyl)-piperazin-1-yl]-ethanone]: the inhibition (usually how much of the control response was suppressed) at 5 µg/mL with Haemonchus contortus [1] is not below 90%. In data set [2], the Papp A→B at 20 μM came to 6.9 ×10⁻⁶ cm/s. Further, the inhibition in vivo at 30 mg/kg in the data set on Haemonchus contortus [4] was in the range of 70 to 90%.

Turning to `c1ccc2[nH]c(-c3cscn3)nc2c1` [thiabendazole], in data set [5], the “fold resistance of the isolate” value is 127 fold.
